ChEMBL document CHEMBL5528073, “Design, Synthesis, and Biological Evaluation of Pierardine Derivatives as Novel Brain-Penetrant and In Vivo Potent NMDAR-GluN2B Antagonists for Ischemic Stroke Treatment” (J Med Chem, 2024)

Target: Glutamate receptor ionotropic, NMDA 2B (Rattus norvegicus) (UniProt Q00960)
Experiment: Antagonist activity at rat GluN2B NMDA receptor at 50 nM incubated for 120 mins by competitive binding assay relative to control
Parameters: scale not given: the % may be the effect or the level left
Conditions: not given; call rule not given here

Chain of Glutamate receptor ionotropic, NMDA 2B (Rattus norvegicus) (Q00960 27-1482 limits assumed): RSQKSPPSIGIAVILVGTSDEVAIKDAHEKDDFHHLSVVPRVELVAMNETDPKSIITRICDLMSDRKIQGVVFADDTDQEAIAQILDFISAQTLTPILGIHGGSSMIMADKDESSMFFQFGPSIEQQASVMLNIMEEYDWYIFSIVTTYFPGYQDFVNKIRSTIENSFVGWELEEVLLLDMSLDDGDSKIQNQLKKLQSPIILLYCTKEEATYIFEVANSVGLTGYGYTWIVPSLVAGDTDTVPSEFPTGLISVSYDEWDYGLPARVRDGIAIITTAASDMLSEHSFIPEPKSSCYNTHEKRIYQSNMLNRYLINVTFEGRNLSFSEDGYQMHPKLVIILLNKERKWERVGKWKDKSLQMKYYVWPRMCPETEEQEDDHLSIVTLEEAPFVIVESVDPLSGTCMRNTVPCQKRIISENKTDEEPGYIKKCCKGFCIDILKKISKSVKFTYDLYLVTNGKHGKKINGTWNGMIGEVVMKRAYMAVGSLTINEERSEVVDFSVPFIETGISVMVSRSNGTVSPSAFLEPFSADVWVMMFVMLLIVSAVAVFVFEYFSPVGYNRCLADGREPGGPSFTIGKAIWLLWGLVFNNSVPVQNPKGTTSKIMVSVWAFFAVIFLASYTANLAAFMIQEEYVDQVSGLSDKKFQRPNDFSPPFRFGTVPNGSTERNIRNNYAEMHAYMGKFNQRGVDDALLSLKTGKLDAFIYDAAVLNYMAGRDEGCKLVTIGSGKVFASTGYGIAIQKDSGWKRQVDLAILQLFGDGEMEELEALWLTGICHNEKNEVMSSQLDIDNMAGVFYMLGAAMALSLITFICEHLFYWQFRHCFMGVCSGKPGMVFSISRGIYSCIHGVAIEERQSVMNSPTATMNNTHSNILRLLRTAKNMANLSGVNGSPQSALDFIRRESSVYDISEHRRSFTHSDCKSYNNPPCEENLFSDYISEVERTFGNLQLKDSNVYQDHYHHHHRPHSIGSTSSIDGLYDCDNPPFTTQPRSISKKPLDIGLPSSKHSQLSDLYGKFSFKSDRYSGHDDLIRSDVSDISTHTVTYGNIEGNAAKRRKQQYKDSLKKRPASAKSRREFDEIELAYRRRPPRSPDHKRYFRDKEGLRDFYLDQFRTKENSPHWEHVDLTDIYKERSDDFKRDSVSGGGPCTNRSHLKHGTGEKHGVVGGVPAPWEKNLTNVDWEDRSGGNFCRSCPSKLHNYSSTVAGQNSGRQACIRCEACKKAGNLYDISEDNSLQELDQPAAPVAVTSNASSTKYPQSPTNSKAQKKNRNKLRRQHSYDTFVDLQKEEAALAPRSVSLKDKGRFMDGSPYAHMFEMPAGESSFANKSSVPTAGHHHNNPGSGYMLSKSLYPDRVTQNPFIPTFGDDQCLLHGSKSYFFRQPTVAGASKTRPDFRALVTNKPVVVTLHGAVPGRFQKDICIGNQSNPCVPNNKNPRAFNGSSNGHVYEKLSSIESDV

Activity [%] | Compound
30.9 | O=C1OC(CCCN2CCN(c3ncccn3)CC2)c2ccccc21 (stereo unspecified)
36.6 | O=C1OC(CCCN2CCN(c3csc4ccccc34)CC2)c2ccccc21 (stereo unspecified)
26.7 | O=C1OC(CCCN2Cc3ccccc3C2)c2ccccc21 (stereo unspecified)
32.4 | Cc1ccc2c(c1)CN(CCCC1OC(=O)c3ccccc31)CC2 (stereo unspecified)
15.7 | O=C1OC(CCCN2CCN(c3nsc4ccccc34)CC2)c2ccccc21 (stereo unspecified)
36.4 | O=C1OC(CCCN2CCc3ccccc3C2c2ccccc2)c2ccccc21 (stereo unspecified)
22.2 | O=C1OC(CCCN2CCc3ccccc3C2)c2ccccc21 (stereo unspecified)
24.5 | O=C1OC(CCCN2CCc3ccccc32)c2ccccc21 (stereo unspecified)

Same assay, conditions: filed as antagonist

Activity [%] | Compound
75.4 | O=C1OC(CCCN2CCN(c3ccccc3)CC2)c2ccccc21 (stereo unspecified)
42.2 | O=C1OC(CCCN2CCN(c3ccccn3)CC2)c2ccccc21 (stereo unspecified)
47.1 | NC(=O)c1coc2ccc(N3CCN(CCCC4OC(=O)c5ccccc54)CC3)cc12 (stereo unspecified)
47.1 | O=C1OC(CCCN2CCc3ccccc32)c2ccccc21 (stereo unspecified)

Compound | Activity [%]
O=C1OC(CCCN2C[C@H]3C[C@@]3(c3ccc(Cl)c(Cl)c3)C2)c2ccccc21 (stereo partly specified) | 76

Test system: not listed separately
Experiment: Cytotoxicity against mouse L929 cells assessed as reduction in cell viability incubated for 48 hrs by CCK-8 assay
Conditions: not given

Compound | IC50 at 48 h [nM]
CN(C)CCCC1OC(=O)c2ccccc21 (stereo unspecified) | > 300000

Target: Glutamate receptor ionotropic, NMDA 2B (Rattus norvegicus, UniProt Q00960)
Sequence (Q00960 whole entry): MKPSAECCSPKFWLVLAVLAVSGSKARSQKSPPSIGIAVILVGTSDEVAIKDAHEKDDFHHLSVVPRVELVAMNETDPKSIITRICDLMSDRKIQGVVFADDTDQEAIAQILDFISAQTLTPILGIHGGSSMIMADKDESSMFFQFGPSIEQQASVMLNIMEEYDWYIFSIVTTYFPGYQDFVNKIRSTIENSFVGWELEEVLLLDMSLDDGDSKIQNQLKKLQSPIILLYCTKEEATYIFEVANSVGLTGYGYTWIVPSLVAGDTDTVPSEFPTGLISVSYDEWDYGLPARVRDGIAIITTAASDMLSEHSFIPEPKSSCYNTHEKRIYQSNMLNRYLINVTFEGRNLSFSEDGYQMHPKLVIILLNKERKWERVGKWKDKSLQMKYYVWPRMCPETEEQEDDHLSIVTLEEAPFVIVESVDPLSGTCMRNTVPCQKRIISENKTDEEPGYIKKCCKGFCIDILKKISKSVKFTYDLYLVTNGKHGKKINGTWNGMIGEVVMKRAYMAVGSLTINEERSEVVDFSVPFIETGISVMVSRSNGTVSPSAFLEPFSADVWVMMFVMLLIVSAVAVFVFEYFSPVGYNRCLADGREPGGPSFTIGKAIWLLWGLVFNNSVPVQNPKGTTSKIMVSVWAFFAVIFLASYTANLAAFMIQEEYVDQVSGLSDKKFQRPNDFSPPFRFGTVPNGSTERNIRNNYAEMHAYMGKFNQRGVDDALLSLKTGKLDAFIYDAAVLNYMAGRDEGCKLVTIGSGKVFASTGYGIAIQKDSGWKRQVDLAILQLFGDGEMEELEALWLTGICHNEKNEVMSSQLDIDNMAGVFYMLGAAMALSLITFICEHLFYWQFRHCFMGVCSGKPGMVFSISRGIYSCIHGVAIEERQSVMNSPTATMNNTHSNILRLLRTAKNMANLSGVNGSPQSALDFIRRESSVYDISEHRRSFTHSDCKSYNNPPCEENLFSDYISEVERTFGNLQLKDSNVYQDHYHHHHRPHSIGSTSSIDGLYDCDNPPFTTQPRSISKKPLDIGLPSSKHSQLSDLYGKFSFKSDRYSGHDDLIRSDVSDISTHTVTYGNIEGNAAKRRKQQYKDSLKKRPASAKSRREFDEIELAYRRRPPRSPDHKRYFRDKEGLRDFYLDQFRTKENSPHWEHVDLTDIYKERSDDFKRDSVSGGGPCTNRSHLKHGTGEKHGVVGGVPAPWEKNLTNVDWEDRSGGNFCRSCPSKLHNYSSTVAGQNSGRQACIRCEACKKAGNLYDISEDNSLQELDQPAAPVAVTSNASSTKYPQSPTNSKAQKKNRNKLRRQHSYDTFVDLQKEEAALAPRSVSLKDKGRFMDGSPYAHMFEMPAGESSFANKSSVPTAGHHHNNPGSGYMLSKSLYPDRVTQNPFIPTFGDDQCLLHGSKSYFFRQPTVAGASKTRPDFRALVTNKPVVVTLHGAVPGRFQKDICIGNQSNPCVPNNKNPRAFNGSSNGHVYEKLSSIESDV
Experiment: not given
Conditions: not given

Ki [nM] | Compound
12.7 | O=C1OC(CCCN2CCN(C(=O)c3ccc(Cl)cc3)CC2)c2ccccc21 (stereo unspecified)
26 | COc1ccc2[nH]c(C(=O)N3CCN(CCCC4OC(=O)c5ccccc54)CC3)cc2c1 (stereo unspecified)
34.6 | COc1cccc(C(=O)N2CCN(CCCC3OC(=O)c4ccccc43)CC2)c1 (stereo unspecified)
8.15 | COc1ccccc1N1CCN(CCCC2OC(=O)c3ccccc32)CC1 (stereo unspecified)
29.2 | Cc1ccc(N2CCN(CCCC3OC(=O)c4ccccc43)CC2)cc1C (stereo unspecified)
11.3 | Cc1ccccc1N1CCN(CCCC2OC(=O)c3ccccc32)CC1 (stereo unspecified)
36.8 | Cc1cccc(N2CCN(CCCC3OC(=O)c4ccccc43)CC2)c1 (stereo unspecified)
9.39 | O=C1OC(CCCN2CCN(c3ccc(F)cc3)CC2)c2ccccc21 (stereo unspecified)
1.28 | O=C(O)c1ccccc1C(O)CCCN1CCN(C(=O)C2Cc3cccc(Cl)c3N2)CC1 (stereo unspecified)
23.6 | O=C1OC(CCCN2CCN(c3ccccc3F)CC2)c2ccccc21 (stereo unspecified)
114 | CN(C)CCCC1OC(=O)c2ccccc21 (stereo unspecified)
7.97 | O=C1OC(CCCN2CCN(C(=O)c3cc4ccccc4[nH]3)CC2)c2ccccc21 (stereo unspecified)
6.12 | Cc1ccc(N2CCN(CCCC3OC(=O)c4ccccc43)CC2)cc1 (stereo unspecified)
13.9 | O=C1OC(CCCN2CCN(c3ccccc3)CC2)c2ccccc21 (stereo unspecified)
46.7 | COc1ccc(C(=O)N2CCN(CCCC3OC(=O)c4ccccc43)CC2)cc1 (stereo unspecified)
53.2 | COc1ccc2cc(C(=O)N3CCN(CCCC4OC(=O)c5ccccc54)CC3)[nH]c2c1 (stereo unspecified)
19.6 | CS(=O)(=O)Nc1ccc2c(c1)C(=O)OC2CCCN1CCN(c2ccc(O)cc2)CC1 (stereo unspecified)
1.12 | O=C1OC(CCCN2CCN(C(=O)c3cc4cccc(Cl)c4[nH]3)CC2)c2cc(O)ccc21 (stereo unspecified)
2.89 | CC(C)c1ccc(N2CCN(CCCC3OC(=O)c4ccccc43)CC2)cc1 (stereo unspecified)
26.8 | O=C1OC(CCCN2CCN(c3ccc(O)cc3)CC2)c2ccccc21 (stereo unspecified)
32.8 | O=C1OC(CCCN2CCN(C(=O)c3ccccc3)CC2)c2ccccc21 (stereo unspecified)
3.77 | O=C1OC(CCCN2CCN(c3ccc([N+](=O)[O-])cc3)CC2)c2ccccc21 (stereo unspecified)
32.8 | O=C1OC(CCCN2CCN(C(=O)c3cc4cnccc4[nH]3)CC2)c2ccccc21 (stereo unspecified)
6.26 | O=C1OC(CCCN2CCN(c3ccc(O)cc3)CC2)c2ccc(O)cc21 (stereo unspecified)
23.5 | O=C1OC(CCCN2CCN(C(=O)c3cccnc3)CC2)c2ccccc21 (stereo unspecified)
24.3 | COc1ccc(N2CCN(CCCC3OC(=O)c4ccccc43)CC2)cc1 (stereo unspecified)

Ki [nM] | Compound
25.4 | O=C1OC(CCCN2CCN(C(=O)c3cc4ccncc4[nH]3)CC2)c2ccccc21 (stereo unspecified)
15.1 | Cc1ccc(N2CCN(CCCC3OC(=O)c4ccc(O)cc43)CC2)cc1 (stereo unspecified)
25.6 | O=C1OC(CCCN2CCN(c3ccc(Cl)cc3)CC2)c2ccccc21 (stereo unspecified)
49.7 | O=C1OC(CCCN2CCN(C(=O)c3cc4cccnc4[nH]3)CC2)c2ccccc21 (stereo unspecified)
25.9 | O=C1OC(CCCN2CCN(c3ccccc3C(F)(F)F)CC2)c2ccccc21 (stereo unspecified)
26.5 | O=C1OC(CCCN2CCN(c3ccc(Br)cc3)CC2)c2ccccc21 (stereo unspecified)
15.2 | CS(=O)(=O)Nc1ccc2c(c1)C(=O)OC2CCCN1CCN(C(=O)c2ccc(C(F)(F)F)cc2)CC1 (stereo unspecified)
2.6 | O=C1OC(CCCN2CCN(C(=O)c3ccc(C(F)(F)F)cc3)CC2)c2ccccc21 (stereo unspecified)
13.2 | Cc1ccc(C(=O)N2CCN(CCCC3OC(=O)c4cc(NS(C)(=O)=O)ccc43)CC2)cc1 (stereo unspecified)
27.9 | Cc1cccc2cc(C(=O)N3CCN(CCCC4OC(=O)c5ccccc54)CC3)[nH]c12 (stereo unspecified)
12.4 | Cc1ccc(N2CCN(CCCC3OC(=O)c4cc(NS(C)(=O)=O)ccc43)CC2)cc1 (stereo unspecified)
30.9 | COc1cccc(N2CCN(CCCC3OC(=O)c4ccccc43)CC2)c1 (stereo unspecified)
36.2 | Cc1ccc(C(=O)N2CCN(CCCC3OC(=O)c4cc(O)ccc43)CC2)cc1 (stereo unspecified)
32.1 | O=C1OC(CCCN2CCN(C(=O)c3ccc(C(F)(F)F)cc3)CC2)c2ccc(O)cc21 (stereo unspecified)
1.34 | Cc1ccc(C(=O)N2CCN(CCCC3OC(=O)c4ccccc43)CC2)cc1 (stereo unspecified)
73.4 | O=C1OC(CCCN2CCN(C(=O)c3nc4ccccc4[nH]3)CC2)c2ccccc21 (stereo unspecified)
4.23 | CS(=O)(=O)Nc1ccc2c(c1)C(=O)OC2CCCN1CCN(C(=O)c2cc3cccc(Cl)c3[nH]2)CC1 (stereo unspecified)
12.1 | O=C1OC(CCCN2CCN(C(=O)c3ccncc3)CC2)c2ccccc21 (stereo unspecified)
42.9 | O=C1OC(CCCN2CCN(c3ccc(C(F)(F)F)cc3)CC2)c2ccccc21 (stereo unspecified)
13 | O=C1OC(CCCN2CCN(C(=O)c3cc[nH]c3)CC2)c2ccccc21 (stereo unspecified)
13.4 | O=C1OC(CCCN2CCN(C(=O)c3c[nH]cn3)CC2)c2ccccc21 (stereo unspecified)
31.1 | O=C1OC(CCCN2CCN(C(=O)c3ccc(F)cc3)CC2)c2ccccc21 (stereo unspecified)
20.8 | O=C1OC(CCCN2CCN(c3cccc(Cl)c3)CC2)c2ccccc21 (stereo unspecified)
8.22 | O=C1OC(CCCN2CCN(C(=O)c3ccc(C(F)(F)F)cc3)CC2)c2cc(O)ccc21 (stereo unspecified)
16.7 | O=C1OC(CCCN2CCN(C(=O)c3cc4ccc(Cl)cc4[nH]3)CC2)c2ccccc21 (stereo unspecified)
45.1 | O=C1OC(CCCN2CCN(C(=O)c3ccccn3)CC2)c2ccccc21 (stereo unspecified)

Compound | Ki [nM]
O=C1OC(CCCN2C[C@H]3C[C@@]3(c3ccc(Cl)c(Cl)c3)C2)c2ccccc21 (stereo partly specified) | 33.6

Test system: not listed separately
Experiment: Neuroprotective activity against NMDA-induced cell injury in rat Hippocampal neuron cells assessed as cell viability at 10 uM preincubated with compound for 6 hrs followed by NMDA-addition and measured after 0.5 hrs by MTT assay relative to control
Conditions: Hippocampal neurone, 6.5 h, read-out: Activity

Compound | viability at 10 µM [%]
CC(C(O)c1ccc(O)cc1)N1CCC(Cc2ccccc2)CC1 (stereo unspecified) [IFENPRODIL] | 84.8

Test system: not listed separately
Experiment: Cytotoxicity against mouse primary neuron cells assessed as reduction in cell viability incubated for 48 hrs by CCK-8 assay
Conditions: not given

Compound | IC50 at 48 h [nM]
CN(C)CCCC1OC(=O)c2ccccc21 (stereo unspecified) | > 300000

Test system: not listed separately
Experiment: Neuroprotective activity against NMDA-induced cell injury in rat Hippocampal neuron cells assessed as cell viability at 0.1 uM preincubated with compound for 6 hrs followed by NMDA-addition and measured after 0.5 hrs by MTT assay relative to control
Conditions: Hippocampal neurone, 6.5 h, read-out: Activity

Compound | viability at 0.1 µM [%]
CC(C(O)c1ccc(O)cc1)N1CCC(Cc2ccccc2)CC1 (stereo unspecified) [IFENPRODIL] | 65.9

Test system: not listed separately
Experiment: cells
Conditions: Rattus norvegicus, Hippocampal neurone, 6.5 h, read-out: Activity

Compound | viability at 1 µM [%]
CC(C(O)c1ccc(O)cc1)N1CCC(Cc2ccccc2)CC1 (stereo unspecified) [IFENPRODIL] | 77

Target: Voltage-gated inwardly rectifying potassium channel KCNH2 (Homo sapiens, UniProt Q12809)
Experiment: Inhibition of hERG expressed in HEK293 cells by whole-cell manual patch-clamp assay
Assay type: toxicity, cell-based
Conditions: not given

Compound | inhibition (INH)
O=C1OC(CCCN2CCN(C(=O)c3cc4cccc(Cl)c4[nH]3)CC2)c2cc(O)ccc21 (stereo unspecified) | Active

Test system: not listed separately
Experiment: Cytotoxicity against African green monkey Vero cells assessed as reduction in cell viability incubated for 48 hrs by CCK-8 assay
Conditions: not given

Compound | IC50 at 48 h [nM]
CN(C)CCCC1OC(=O)c2ccccc21 (stereo unspecified) | > 300000

Test system: not listed separately
Experiment: Cytotoxicity against HEK293 cells assessed as reduction in cell viability incubated for 48 hrs by CCK-8 assay
Conditions: human

Compound | IC50 at 48 h [nM]
CN(C)CCCC1OC(=O)c2ccccc21 (stereo unspecified) | > 300000

Target: Glutamate NMDA receptor; GRIN1/GRIN2B (Homo sapiens, UniProt Q05586+Q13224)
Sequence (Q13224 whole entry, other chains not shown): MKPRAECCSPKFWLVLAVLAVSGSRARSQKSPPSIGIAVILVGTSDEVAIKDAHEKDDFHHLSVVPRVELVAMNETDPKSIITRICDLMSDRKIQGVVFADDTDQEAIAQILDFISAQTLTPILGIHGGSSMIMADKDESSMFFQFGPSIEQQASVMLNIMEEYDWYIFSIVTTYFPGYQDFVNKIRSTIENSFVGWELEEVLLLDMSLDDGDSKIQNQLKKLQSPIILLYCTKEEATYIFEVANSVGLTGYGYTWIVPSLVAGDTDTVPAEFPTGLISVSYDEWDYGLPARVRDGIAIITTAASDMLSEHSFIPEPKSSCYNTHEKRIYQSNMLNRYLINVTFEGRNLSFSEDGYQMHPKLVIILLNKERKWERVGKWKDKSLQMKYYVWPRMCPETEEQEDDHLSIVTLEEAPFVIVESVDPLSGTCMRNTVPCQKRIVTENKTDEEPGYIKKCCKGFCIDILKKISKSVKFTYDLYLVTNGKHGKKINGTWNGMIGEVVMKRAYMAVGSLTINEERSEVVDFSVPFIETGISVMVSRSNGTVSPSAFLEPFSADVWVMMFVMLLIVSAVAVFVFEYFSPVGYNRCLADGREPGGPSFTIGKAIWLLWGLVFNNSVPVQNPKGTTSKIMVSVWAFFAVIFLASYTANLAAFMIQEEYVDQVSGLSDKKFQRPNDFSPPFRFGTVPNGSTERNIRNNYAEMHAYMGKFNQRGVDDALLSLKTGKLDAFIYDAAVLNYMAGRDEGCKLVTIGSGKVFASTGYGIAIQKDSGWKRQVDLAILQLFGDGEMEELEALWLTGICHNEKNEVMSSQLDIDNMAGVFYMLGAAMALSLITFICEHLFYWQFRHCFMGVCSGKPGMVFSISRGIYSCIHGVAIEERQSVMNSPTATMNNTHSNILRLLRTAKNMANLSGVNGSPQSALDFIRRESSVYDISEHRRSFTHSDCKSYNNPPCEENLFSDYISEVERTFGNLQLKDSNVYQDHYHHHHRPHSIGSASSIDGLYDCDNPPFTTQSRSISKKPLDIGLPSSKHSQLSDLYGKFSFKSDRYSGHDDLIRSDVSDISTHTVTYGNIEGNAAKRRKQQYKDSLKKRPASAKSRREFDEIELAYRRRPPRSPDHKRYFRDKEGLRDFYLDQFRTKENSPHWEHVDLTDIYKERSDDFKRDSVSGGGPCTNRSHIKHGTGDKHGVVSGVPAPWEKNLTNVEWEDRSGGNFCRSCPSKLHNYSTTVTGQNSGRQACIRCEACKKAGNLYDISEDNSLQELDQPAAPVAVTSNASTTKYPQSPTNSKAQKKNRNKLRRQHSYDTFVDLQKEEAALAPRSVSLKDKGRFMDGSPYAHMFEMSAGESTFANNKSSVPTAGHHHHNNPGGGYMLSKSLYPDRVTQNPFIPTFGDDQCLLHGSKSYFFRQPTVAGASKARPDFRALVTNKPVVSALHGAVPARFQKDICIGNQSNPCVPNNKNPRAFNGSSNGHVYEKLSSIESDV
Experiment: not given
Conditions: not given

IC50 [nM] | Compound
> 10000 | CN(C)CCCC1OC(=O)c2ccccc21 (stereo unspecified)
183 | O=C1OC(CCCN2CCN(C(=O)c3cc4cccc(Cl)c4[nH]3)CC2)c2cc(O)ccc21 (stereo unspecified)
